“Also recorded” adds a separate entry of the source. Where a name gives a salt, the structure may show the parent alone.
How the values were obtained:
[1] = system: scarring resulting from full thickness cutaneous incisional wounds; assay: Rat incisional wound scarring model, macroscopic VAS assessment of scars; assay type: in vivo, male Sprague Dawley rats; conditions: day 70 post-wounding
Protocol: (§1) The GABAA receptor agonist Gaboxadol hydrochloride (Sigma Aldrich, catalogue number T101) was diluted in phosphate buffered saline (PBS) to produce medicaments of the invention having the following concentrations:
(§2) i) 1.76 ng/100 μL (a concentration of 0.1 μM, in which each […] of the medicament provides 10 pmoles of Gaboxadol hydrochloride); ii) 1.76 μg/100 μL (a concentration of 100 μM, in which each 100 μl of the medicament provides 10 nmoles of Gaboxadol hydrochloride); and iii) 8.83 μg/100 μL (a concentration of 500 μM, in which each 100 μl of the medicament provides 50 nmoles of Gaboxadol hydrochloride).
(§3) At day 0, male Sprague Dawley rats (200-250 g) were anaesthetised, shaved and wound sites were marked according to a template in which two wounds, each 1 cm in length, were made at sites 5 cm from the base of the skull and 1 cm from the midline on the back of each rat.
(§4) One hundred microlitres of either one of the medicaments of the invention (comprising either 0.1 μM, 100 μM or 500 μM Gaboxadol hydrochloride in phosphate buffered saline pH 7.2—purchased from GIBCO BRL, Cat. # 20012-019), or placebo (PBS only) was injected intradermally at the wound sites. The intradermal injections caused the formation of a raised bleb, which was then immediately incised to form 1 cm long experimental wounds.
(§5) All treated or diluent control wounds were re-injected again 1 day post-wounding with the appropriate treatment (drug or placebo) via injection of 50 μl to each of the two margins of the 1 cm wound. All wounds were all harvested at day 70 post-wounding.
The wounds were photographed after wounding, prior to re-injection on day 1 and on day of harvest. The scars were assessed using a visual analogue scale (VAS) consisting of a 0-10 cm line representing a scale, from left to right, of 0 (corresponding to normal skin) to 10 (indicative of a bad scar).

[2] = system: scarring resulting from full thickness cutaneous incisional wounds; assay: Rat incisional wound scarring model, microscopic assessment of scars (Masson's trichrome); assay type: in vivo, male Sprague Dawley rats; conditions: day 70 post-wounding
Protocol: as §1, §2, §3, §4, §5
For microscopic assessment the scars were excised from the experimental rats (incorporating a small amount of surrounding normal tissue) and fixed in 10% (v/v) buffered formal saline. The fixed tissue was then processed for wax histology, stained using Masson's trichrome, and scarring in the regenerated dermis was assessed.

[3] = target: GABAA receptors containing α4β3δ subunits (Homo sapiens, UniProt P28472+P48169); conditions: Brown et al. 2002, cited from earlier work
GABAA receptor = conditions: relative to GABA; cited from earlier work

Chain of GABAA receptors containing α4β3δ subunits (P48169 36-554): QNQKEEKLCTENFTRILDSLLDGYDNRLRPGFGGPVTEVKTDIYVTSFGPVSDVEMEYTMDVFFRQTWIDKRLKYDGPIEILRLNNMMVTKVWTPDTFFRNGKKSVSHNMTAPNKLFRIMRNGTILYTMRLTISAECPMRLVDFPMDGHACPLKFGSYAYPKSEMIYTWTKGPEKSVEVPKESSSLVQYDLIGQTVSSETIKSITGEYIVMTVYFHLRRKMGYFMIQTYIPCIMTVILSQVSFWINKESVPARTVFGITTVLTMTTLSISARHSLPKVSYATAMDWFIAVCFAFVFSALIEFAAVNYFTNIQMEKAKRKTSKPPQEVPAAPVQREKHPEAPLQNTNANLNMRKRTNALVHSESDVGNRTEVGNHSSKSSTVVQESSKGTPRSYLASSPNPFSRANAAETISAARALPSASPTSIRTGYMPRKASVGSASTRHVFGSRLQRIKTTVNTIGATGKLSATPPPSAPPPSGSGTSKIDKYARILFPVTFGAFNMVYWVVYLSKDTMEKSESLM
Chain of GABAA receptors containing α4β3δ subunits (P28472 26-473): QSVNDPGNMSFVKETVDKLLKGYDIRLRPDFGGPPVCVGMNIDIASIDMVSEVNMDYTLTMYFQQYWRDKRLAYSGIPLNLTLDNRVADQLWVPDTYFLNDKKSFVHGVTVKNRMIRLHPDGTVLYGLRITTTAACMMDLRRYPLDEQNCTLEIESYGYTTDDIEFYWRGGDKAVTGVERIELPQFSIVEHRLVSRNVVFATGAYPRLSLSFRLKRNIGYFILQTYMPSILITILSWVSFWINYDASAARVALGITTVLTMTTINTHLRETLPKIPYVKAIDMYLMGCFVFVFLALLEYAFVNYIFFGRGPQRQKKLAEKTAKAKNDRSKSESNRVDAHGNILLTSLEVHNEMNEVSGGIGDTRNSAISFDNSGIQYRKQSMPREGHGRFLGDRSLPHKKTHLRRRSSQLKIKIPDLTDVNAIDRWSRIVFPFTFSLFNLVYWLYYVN
Chain of GABAA receptors containing α4β3δ subunits (O14764 25-452 partner): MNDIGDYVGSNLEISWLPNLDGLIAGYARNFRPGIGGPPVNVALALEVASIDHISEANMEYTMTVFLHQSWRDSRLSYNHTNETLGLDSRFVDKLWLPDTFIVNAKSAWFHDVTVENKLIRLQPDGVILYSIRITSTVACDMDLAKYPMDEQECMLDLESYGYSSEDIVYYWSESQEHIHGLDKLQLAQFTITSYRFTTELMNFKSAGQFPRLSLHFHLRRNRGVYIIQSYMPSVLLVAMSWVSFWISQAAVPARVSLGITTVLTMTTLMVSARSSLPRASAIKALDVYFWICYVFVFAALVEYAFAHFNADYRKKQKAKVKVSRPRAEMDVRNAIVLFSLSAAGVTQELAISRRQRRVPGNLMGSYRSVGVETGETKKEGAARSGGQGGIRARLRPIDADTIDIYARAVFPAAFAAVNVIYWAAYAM

Oc1noc2c1CCNC2 [Gaboxadol hydrochloride]
macroscopic appearance of scars (VAS) versus diluent control ([1]; 0.1 μM solution in PBS, two intradermal injections of 100 μl (1.76 ng per centimetre each)): improved the macroscopic appearance of scars; also recorded: statistically significant inhibition of scarring | macroscopic appearance of scars (VAS) versus diluent control ([1]; 100 μM solution in PBS, two intradermal injections of 100 μl (1.76 μg per centimetre each)): improved the macroscopic appearance of scars; also recorded: trend towards scar reduction | macroscopic appearance of scars (VAS) versus diluent control ([1]; 500 μM solution in PBS, two intradermal injections of 100 μl (8.83 μg per centimetre each)): improved the macroscopic appearance of scars | scarring assessed microscopically ([2]; 0.1 μM solution in PBS): reduction of scarring | scarring assessed microscopically ([2]; 100 μM solution in PBS): reduction of scarring | scarring assessed microscopically ([2]; 500 μM solution in PBS): reduction of scarring

Oc1noc2c1CCNC2 [Gaboxadol, 4,5,6,7-tetrahydroisoxazolo[5,4-c]pyridine-3-ol]
EC50 [3]: 6 µM | maximum response (% of that of GABA) ([3]; relative to GABA): 163% | affinity for GABAA receptors compared with GABA (in words) (GABAA receptor): affinity higher than that of GABA itself

NCc1cc(=O)[nH]o1 [Muscimol, muscimol]
affinity at the GABAA receptor, greater than GABA (GABAA receptor): 10 fold
